Active and inactive are the calls of the source. The rule behind the calls is not given here.
What was measured:
[1] = tested on: OVCAR-3; test: Cytotoxicity against human OVCAR3 cells at 10 uM after 48 hrs by SRB assay; type: functional
[2] = tested on: Hs-578T; test: Cytotoxicity against human Hs 578T cells at 10 uM after 48 hrs by SRB assay; type: functional
[3] = tested on: LOX IMVI; test: Cytotoxicity against human LOXIMVI cells at 10 uM after 48 hrs by SRB assay; type: functional
[4] = tested on: SNB-75; test: Cytotoxicity against human SNB75 cells at 10 uM after 48 hrs by SRB assay; type: functional
[5] = tested on: SF-539; test: Cytotoxicity against human SF539 cells at 10 uM after 48 hrs by SRB assay; type: functional
[6] = tested on: UO-31; test: Cytotoxicity against human UO31 cells at 10 uM after 48 hrs by SRB assay; type: functional
[7] = tested on: RXF 393; test: Cytotoxicity against human RXF393 cells at 10 uM after 48 hrs by SRB assay; type: functional
[8] = tested on: Calf thymus DNA; test: Binding affinity to calf thymus DNA at 25 uM by UV-vis spectrometric analysis; type: nucleic-acid assay; conditions: Bos taurus
[9] = Cytotoxicity against human HL-60(TB) cells at 10 uM after 48 hrs by SRB assay; type: functional; conditions: HL-60, 48 h, read-out: GI
[10] = tested on: SF-268; test: Cytotoxicity against human SF268 cells at 10 uM after 48 hrs by SRB assay; type: functional
[11] = tested on: HOP-62; test: Cytotoxicity against human HOP62 cells at 10 uM after 48 hrs by SRB assay; type: functional
[12] = tested on: OVCAR-8; test: Cytotoxicity against human OVCAR8 cells at 10 uM after 48 hrs by SRB assay; type: functional
[13] = tested on: IGROV-1; test: Cytotoxicity against human IGROV1 cells at 10 uM after 48 hrs by SRB assay; type: functional
[14] = tested on: SW-620; test: Cytotoxicity against human SW620 cells at 10 uM after 48 hrs by SRB assay; type: functional
[15] = tested on: CAKI-1; test: Cytotoxicity against human Caki1 cells at 10 uM after 48 hrs by SRB assay; type: functional
[16] = tested on: HOP-92; test: Cytotoxicity against human HOP92 cells at 10 uM after 48 hrs by SRB assay; type: functional
[17] = tested on: DU-145; test: Cytotoxicity against human DU145 cells at 10 uM after 48 hrs by SRB assay; type: functional
[18] = tested on: SK-OV-3; test: Cytotoxicity against human SKOV3 cells at 10 uM after 48 hrs by SRB assay; type: functional
[19] = tested on: NCI/ADR-RES; test: Cytotoxicity against human NCI-ADR-RES cells at 10 uM after 48 hrs by SRB assay; type: functional

Question: Which “growth inhibition (GI)” value [1] does the source give for Cc1nc2cc(Nc3nc(Nc4ccc(F)cc4)nc(N4CCN(C)CC4)n3)ccc2n1Cc1ccccc1 here?
Answer: The value was “Active”.

Question: What about the “growth inhibition (GI)” value [2] of the same compound?
Answer: Its value is “Active”.

Question: What about the “growth inhibition (GI)” value [3] of the same compound?
Answer: The value was “Active”.

Question: And the “growth inhibition (GI)” value [4]?
Answer: Its value is “Active”.

Question: What about the “growth inhibition (GI)” value [5] of the same compound?
Answer: The value was “Active”.

Question: And the “growth inhibition (GI)” value [6]?
Answer: The value was “Active”.

Question: What about the “growth inhibition (GI)” value [7] of the same compound?
Answer: The value was “Active”.

Question: Which Activity [8] does the source give for Cc1nc2ccc(Nc3nc(NCCN4CCOCC4)nc(Nc4ccc(F)cc4)n3)cc2n1Cc1ccccc1 here?
Answer: The Activity was “Active”.

Question: For Cc1nc2cc(Nc3nc(Nc4ccc(F)cc4)nc(-c4cccs4)n3)ccc2n1Cc1ccccc1, which inhibition of growth at 10 µM [9] is on record?
Answer: Its inhibition of growth at 10 µM is 71.9%.

Question: What does the source list for Cc1nc2cc(Nc3nc(Nc4ccc(F)cc4)nc(N4CCCC4)n3)ccc2n1Cc1ccccc1?
Answer: growth inhibition (GI) [1]: Active; growth inhibition (GI) [3]: Active; growth inhibition (GI) [10]: Active; growth inhibition (GI) [11]: Active; growth inhibition (GI) [12]: Active; growth inhibition (GI) [13]: Active; growth inhibition (GI) [14]: Active; growth inhibition (GI) [15]: Active; growth inhibition (GI) [4]: Active; growth inhibition (GI) [16]: Active; growth inhibition (GI) [17]: Active; growth inhibition (GI) [5]: Active; growth inhibition (GI) [6]: Active; growth inhibition (GI) [18]: Active; growth inhibition (GI) [19]: Active; growth inhibition (GI) [7]: Active

— ChEMBL document CHEMBL3745645, “Synthesis, in vitro antitumor activity, dihydrofolate reductase inhibition, DNA intercalation and structure-activity relationship studies of 1,3,5-triazine analogues” (Bioorg Med Chem Lett, 2016)
